Test system: 817829-284-R-J1-PDC multi-cell spheroid viability
Experiment: Anticancer human tumor 817829-284-R-J1-PDC patient-derived colon adenocarcinoma cell line growth inhibition [PI3K]
Conditions: for IC50: curve of first compound; for viability, T/C: stronger effect = lower value; active means viability on the fitted dose curve at most 10% of control; inactive means the rest
Procedure, shortened: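 Tumor cells grown as multi-cell spheroids with HUVEC endothelial cells and MSC fibroblast-like stroma were treated with targeted agents combined with inavolisib, alpelisib, duvelisib or copanlisib. Doses fell in half-log steps from near clinical Cmax, else from 10 microM. Viability was measured.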

[1] = second compound 0.0316 µM, first compound 0.0316 µM
[2] = second compound 0.0316 µM, first compound 0.1 µM
[3] = second compound 0.0316 µM, first compound 0.316 µM
[4] = second compound 0.0316 µM, first compound 1 µM
[5] = second compound 0.0316 µM, first compound 3.16 µM
[6] = second compound 0.0316 µM, first compound 10 µM
[7] = second compound 0.1 µM, first compound 0.0316 µM
[8] = second compound 0.1 µM, first compound 0.1 µM
[9] = second compound 0.1 µM, first compound 0.316 µM
[10] = second compound 0.1 µM, first compound 1 µM
[11] = second compound 0.1 µM, first compound 3.16 µM
[12] = second compound 0.1 µM, first compound 10 µM
[13] = second compound 0.316 µM, first compound 0.0316 µM
[14] = second compound 0.316 µM, first compound 0.1 µM
[15] = second compound 0.316 µM, first compound 0.316 µM
[16] = second compound 0.316 µM, first compound 1 µM
[17] = second compound 0.316 µM, first compound 3.16 µM
[18] = second compound 0.316 µM, first compound 10 µM
[19] = second compound 1 µM, first compound 0.0316 µM
[20] = second compound 1 µM, first compound 0.1 µM
[21] = second compound 1 µM, first compound 0.316 µM
[22] = second compound 1 µM, first compound 1 µM
[23] = second compound 1 µM, first compound 3.16 µM
[24] = second compound 1 µM, first compound 10 µM
[25] = second compound 3.16 µM, first compound 0.0316 µM
[26] = second compound 3.16 µM, first compound 0.1 µM
[27] = second compound 3.16 µM, first compound 0.316 µM
[28] = second compound 3.16 µM, first compound 1 µM
[29] = second compound 3.16 µM, first compound 3.16 µM
[30] = second compound 3.16 µM, first compound 10 µM
[31] = second compound 10 µM, first compound 0.0316 µM
[32] = second compound 10 µM, first compound 0.1 µM
[33] = second compound 10 µM, first compound 0.316 µM
[34] = second compound 10 µM, first compound 1 µM
[35] = second compound 10 µM, first compound 3.16 µM
[36] = second compound 10 µM, first compound 10 µM
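Further: spheroids exposed to agents for seven days before readout.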
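Wherever viability, T/C is given: percent of vehicle DMSO control viability which is 100%.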

CC(C)NCC(C(=O)N1CCN(c2ncnc3c2C(C)CC3O)CC1)c1ccc(Cl)cc1 (centres undefined) + Cc1nc(NC(=O)N2CCCC2C(N)=O)sc1-c1ccnc(C(C)(C)C(F)(F)F)c1
0.193 µM: IC50 (second compound 0.1 µM)
0.0388 µM: IC50 (second compound 10 µM)
0.203 µM: IC50 (second compound 0.316 µM)
0.0692 µM: IC50 (second compound 3.16 µM)
inactive: viability, T/C [1] 80.1% | viability, T/C [2] 62.1% | viability, T/C [3] 51.1% | viability, T/C [4] 21.8% | viability, T/C [5] 19.6% | viability, T/C [6] 13.5% | viability, T/C [7] 82.5% | viability, T/C [8] 72.9% | viability, T/C [9] 32.4% | viability, T/C [10] 21.5% | viability, T/C [11] 19.4% | viability, T/C [12] 13.1% | viability, T/C [13] 55.5% | viability, T/C [14] 107% | viability, T/C [15] 30.5% | viability, T/C [16] 24.4% | viability, T/C [17] 17.3% | viability, T/C [18] 11% | viability, T/C [19] 69.3% | viability, T/C [20] 66.3% | viability, T/C [21] 29.6% | viability, T/C [22] 23% | viability, T/C [23] 16.6% | viability, T/C [24] 8.39% | viability, T/C [25] 69.3% | viability, T/C [26] 40.2% | viability, T/C [27] 23.9% | viability, T/C [28] 19.2% | viability, T/C [29] 15.3% | viability, T/C [31] 52.8% | viability, T/C [32] 39.5% | viability, T/C [33] 29% | viability, T/C [34] 24.6% | viability, T/C [35] 12.5%
0.249 µM: IC50 (second compound 0.0316 µM)
active: viability, T/C [30] 6.49% | viability, T/C [36] 6.18%
0.165 µM: IC50 (second compound 1 µM)

CC1(C)CCC(CN2CCN(c3ccc(C(=O)NS(=O)(=O)c4ccc(NCC5CCOCC5)c([N+](=O)[O-])c4)c(Oc4cnc5[nH]ccc5c4)c3)CC2)=C(c2ccc(Cl)cc2)C1 + Cc1nc(NC(=O)N2CCCC2C(N)=O)sc1-c1ccnc(C(C)(C)C(F)(F)F)c1
5.01 µM: IC50 (second compound 0.0316 µM)
4.74 µM: IC50 (second compound 3.16 µM)
3.89 µM: IC50 (second compound 0.316 µM)
4.25 µM: IC50 (second compound 0.1 µM)
3.47 µM: IC50 (second compound 1 µM)
inactive: viability, T/C [1] 86.7% | viability, T/C [2] 69.7% | viability, T/C [3] 119% | viability, T/C [4] 42.6% | viability, T/C [5] 84.3% | viability, T/C [7] 97.7% | viability, T/C [8] 67.1% | viability, T/C [9] 98.3% | viability, T/C [10] 87.8% | viability, T/C [11] 65.6% | viability, T/C [13] 67.2% | viability, T/C [14] 58.8% | viability, T/C [15] 72.7% | viability, T/C [16] 70.4% | viability, T/C [17] 58.6% | viability, T/C [19] 65.9% | viability, T/C [20] 67.7% | viability, T/C [21] 82.7% | viability, T/C [22] 72.6% | viability, T/C [23] 54.1% | viability, T/C [25] 73.6% | viability, T/C [26] 62.2% | viability, T/C [27] 104% | viability, T/C [28] 72.2% | viability, T/C [29] 74.2% | viability, T/C [31] 81.1% | viability, T/C [32] 89.8% | viability, T/C [33] 57.6% | viability, T/C [34] 78.8% | viability, T/C [35] 42%
2.43 µM: IC50 (second compound 10 µM)
active: viability, T/C [6] 4.12% | viability, T/C [12] 4.95% | viability, T/C [18] 6.66% | viability, T/C [24] 3.59% | viability, T/C [30] 5.23% | viability, T/C [36] 2.17%

Source: PubChem BioAssay AID1963969 (Molecular Pharmacology Branch, DTP, NCI, 2024)
